Reference: PubChem BioAssay (NCI)
Where “and” joins values, the source holds several entries; their conditions need not be identical. Equal entries are not always repeated.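 Compound exposure: 48 hours, 5 concentrations, 96-well plates. GI50 = concentration required for 50% inhibition of growth. TGI is the concentration that stops growth completely.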

System: DU-145 prostate
Assay: NCI tumour cell line growth inhibition, 48 h

Question: With `COc1ccc(-c2nccn2-c2ccc(OC)cc2)cc1` as the molecule, how does the GI50 read?
Answer: Its GI50 is 33.3 µM.

Question: And the TGI?
Answer: The TGI was over 93.8 µM.

Question: How did the TGI turn out when `O=C(/C=C/c1ccccc1)c1ccccc1` was run?
Answer: Its TGI is over 10 µM.

Question: What does the source list for `CC(C)[C@H](O)C(=O)N[C@@H](C)C(=O)N[C@@H]1C(=O)N(C)CCc2ccccc21`?
Answer: GI50: > 100 µM; TGI: > 100 µM

Question: `C=CC(=O)N1CN(C(=O)C=C)CN(C(=O)C=C)C1` was tested. Which GI50 did it give?
Answer: Its GI50 is 10.7 µM.

Question: And the TGI?
Answer: The TGI was 29 µM.

Question: For `COc1ccc(-c2cnnn2-c2nonc2-n2cccc2)cc1`, which GI50 is on record?
Answer: The GI50 was 0.342 µM.

Question: What about the TGI of the same molecule?
Answer: The TGI was 2.62 µM.

Question: How did the TGI turn out when `ClC(Cl)=C1C(=C(Cl)Cl)C(Cl)(Cl)C1(Cl)Cl` was run?
Answer: The TGI was 23.4 µM.

Question: What does the source list for `C#CCOc1cccc(Nc2ncnc3c(NC(=O)C=C)cccc23)c1`?
Answer: GI50: 18.1 µM; TGI: > 100 µM

Question: `CO[C@H]1Nc2c(ccc(C)c2O)C(=O)N2C=C(/C=C/C(N)=O)C[C@@H]12` was tested. Which TGI did it give?
Answer: Its TGI is over 62 µM.

Question: For `O=C(/C(=C\c1c(-c2ccccc2)[nH]c2ccccc12)S(=O)(=O)c1ccccc1)c1ccccc1`, which GI50 is on record?
Answer: Its GI50 is over 100 µM.

Question: And the TGI?
Answer: The TGI was over 100 µM.

Question: How did the TGI turn out when `COc1ccc(C(=O)c2cc(OC)c(OC)c(OC)c2)cc1OC` was run?
Answer: The TGI was over 100 µM.

Question: With `CCNC(=O)/C(=C/c1ccc(OC)cc1)c1cc(OC)c(OC)c(OC)c1` as the molecule, how does the TGI read?
Answer: The TGI was 80.2 µM.

Question: For `CCCc1cc(=O)n2c(C(=O)Nc3ccc(Cl)cc3C)c(C(=O)Nc3ccc(F)cc3)sc2n1`, which GI50 is on record?
Answer: Its GI50 is 9.37 µM.

Question: What about the TGI of the same molecule?
Answer: The TGI was 33.3 µM.

Question: Which GI50 does the source give for `Cc1ccc(OCCOCCOCCOCCOc2ccc(C)n(O)c2=S)c(=S)n1O` here?
Answer: Its GI50 is 0.184 µM.

Question: And the TGI?
Answer: The TGI was over 100 µM.

Question: `N[C@H](CCC(=O)N[C@@H](Cc1c[nH]c2ccccc12)C(=O)O)C(=O)O` was tested. Which GI50 did it give?
Answer: The GI50 was over 100 µM.

Question: And the TGI?
Answer: Its TGI is over 100 µM.

Question: For `CN(C)CCNCCN`, which TGI is on record?
Answer: The TGI was over 100 µM.

Question: For `Nc1ccccc1O.O.O=C(O)C1[O][Sb][O]C1C(=O)O` (stereo not drawn), which GI50 is on record?
Answer: The GI50 was 14.6 µM.

Question: What about the TGI of the same molecule?
Answer: Its TGI is 27.8 µM.

Question: `O=C(c1ccco1)c1c(C(F)(F)F)n([O-])c2ccc(C(F)(F)F)cc2[n+]1=O` was tested. Which GI50 did it give?
Answer: The GI50 was 0.5 µM.

Question: And the TGI?
Answer: Its TGI is 0.925 µM.

Question: Which GI50 does the source give for `OC(c1cc(-c2ccc(C(F)(F)F)cc2)nc(C(F)(F)F)c1)C1CCCCN1` (stereo not drawn) here?
Answer: The GI50 was 1.76 µM and 2.66 µM.

Question: What about the TGI of the same molecule?
Answer: The TGI was 3.14 µM and 7.06 µM.

Question: `CC(C)CC(C/C=C1/CC(CO)(COC(=O)C(C)(C)C)OC1=O)CC(C)C` (stereo not drawn) was tested. Which GI50 did it give?
Answer: The GI50 was 20.2 µM.

Question: What about the TGI of the same molecule?
Answer: The TGI was 49.2 µM and 11.5 µM.

Question: With `O=C(Nc1cc(Nc2ncccc2-c2ncnc3nc[nH]c23)ccc1F)c1cc(C(F)(F)F)cc(C(F)(F)F)c1` as the molecule, how does the GI50 read?
Answer: The GI50 was 4.16 µM.

Question: And the TGI?
Answer: Its TGI is over 10 µM.

Question: What does the source list for `CCc1ccc2c(c1)C(=O)c1c-2n(CCCN=[N+]=[N-])c(=O)c2cc([N+](=O)[O-])ccc12`?
Answer: GI50: > 50 µM; TGI: > 50 µM

Question: Which TGI does the source give for `CCC/C=C/C=C/C1CC(O)C(O)C(=O)C1CO` (stereo not drawn) here?
Answer: The TGI was over 100 µM.

System: OVCAR-8 ovarian
Assay: NCI tumour cell line growth inhibition, 48 h

Question: Which GI50 does the source give for `O=C1CCCN1c1ccccc1I(=O)=O` here?
Answer: Its GI50 is over 100 µM.

Question: What about the TGI of the same molecule?
Answer: The TGI was over 100 µM.

Question: Which GI50 does the source give for `COC(=O)C1=COC(C)C2CN3CCc4c([nH]c5ccccc45)C3CC12` (stereo not drawn) here?
Answer: The GI50 was 18.6 µM and > 100 µM.

Question: And the TGI?
Answer: The TGI was over 100 µM.

Question: With `O=C(NCc1ccc(Cn2c(=O)sn(-c3ccccc3)c2=O)cc1)OCc1ccc2cccc(O)c2n1` as the molecule, how does the GI50 read?
Answer: The GI50 was 0.957 µM.

Question: And the TGI?
Answer: Its TGI is 3 µM.

Question: With `COC(c1ccc(C(C)(C)C)cc1)(c1ccc(C(C)(C)C)cc1)c1ccc(C(C)(C)C)cc1` as the molecule, how does the TGI read?
Answer: The TGI was over 100 µM.

Question: `CC(C)c1[nH]nc2c1N=C(c1ccccc1Cl)c1cc([N+](=O)[O-])ccc1N2` was tested. Which GI50 did it give?
Answer: Its GI50 is 9.1 µM.

Question: And the TGI?
Answer: The TGI was over 25 µM.

Question: Which GI50 does the source give for `Nc1cc2c(cc1Br)[nH]c(=O)c1ccccc12` here?
Answer: Its GI50 is 3.37 µM.

Question: What about the TGI of the same molecule?
Answer: Its TGI is over 100 µM.

Question: Which GI50 does the source give for `COc1ccc(-c2nccn2-c2ccc(OC)cc2)cc1` here?
Answer: The GI50 was 23.9 µM.

Question: What about the TGI of the same molecule?
Answer: The TGI was 67.5 µM.

Question: Which TGI does the source give for `O=C(/C=C/c1ccccc1)c1ccccc1` here?
Answer: Its TGI is over 10 µM.

Question: For `CC(C)[C@H](O)C(=O)N[C@@H](C)C(=O)N[C@@H]1C(=O)N(C)CCc2ccccc21`, which GI50 is on record?
Answer: Its GI50 is over 100 µM.

Question: And the TGI?
Answer: The TGI was over 100 µM.

Question: With `C=CC(=O)N1CN(C(=O)C=C)CN(C(=O)C=C)C1` as the molecule, how does the GI50 read?
Answer: The GI50 was 2.93 µM.

Question: What about the TGI of the same molecule?
Answer: Its TGI is over 100 µM.

Question: What does the source list for `COc1ccc(-c2cnnn2-c2nonc2-n2cccc2)cc1`?
Answer: GI50: 0.425 µM; TGI: 18.9 µM

Question: For `ClC(Cl)=C1C(=C(Cl)Cl)C(Cl)(Cl)C1(Cl)Cl`, which TGI is on record?
Answer: The TGI was 18.7 µM.
